“Also recorded” adds a separate entry of the source. Like-named read-outs stand apart in the source and are kept apart here.
Assays:
RXRα [1] = target: T1, RXRα (Homo sapiens, UniProt P19793); experiment: RXRα binding; settings: Table 2
T1 sequence (P19793 1-462): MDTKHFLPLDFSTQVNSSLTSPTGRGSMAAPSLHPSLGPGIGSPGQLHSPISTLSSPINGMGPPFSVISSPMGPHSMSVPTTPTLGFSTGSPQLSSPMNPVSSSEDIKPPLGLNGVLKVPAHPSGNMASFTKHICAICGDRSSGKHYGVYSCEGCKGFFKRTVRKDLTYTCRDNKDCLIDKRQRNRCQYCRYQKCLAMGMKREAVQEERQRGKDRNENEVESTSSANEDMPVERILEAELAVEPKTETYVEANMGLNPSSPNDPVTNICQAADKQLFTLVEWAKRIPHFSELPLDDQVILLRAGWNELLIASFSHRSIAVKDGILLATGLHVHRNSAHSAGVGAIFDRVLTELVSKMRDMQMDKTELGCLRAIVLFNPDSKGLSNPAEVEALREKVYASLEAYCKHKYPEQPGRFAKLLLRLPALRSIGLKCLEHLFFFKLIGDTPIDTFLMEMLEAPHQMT
Text: (§1) Methods essentially as described in those publications were used to determine the binding and transactivation properties of retinoids reported in the Examples herein.

RARα [2] = target: T2, RARα (Homo sapiens, UniProt P10276); experiment: RARα binding; settings: Table 2; read-out: RARα binding IC50
T2 sequence (P10276 1-462): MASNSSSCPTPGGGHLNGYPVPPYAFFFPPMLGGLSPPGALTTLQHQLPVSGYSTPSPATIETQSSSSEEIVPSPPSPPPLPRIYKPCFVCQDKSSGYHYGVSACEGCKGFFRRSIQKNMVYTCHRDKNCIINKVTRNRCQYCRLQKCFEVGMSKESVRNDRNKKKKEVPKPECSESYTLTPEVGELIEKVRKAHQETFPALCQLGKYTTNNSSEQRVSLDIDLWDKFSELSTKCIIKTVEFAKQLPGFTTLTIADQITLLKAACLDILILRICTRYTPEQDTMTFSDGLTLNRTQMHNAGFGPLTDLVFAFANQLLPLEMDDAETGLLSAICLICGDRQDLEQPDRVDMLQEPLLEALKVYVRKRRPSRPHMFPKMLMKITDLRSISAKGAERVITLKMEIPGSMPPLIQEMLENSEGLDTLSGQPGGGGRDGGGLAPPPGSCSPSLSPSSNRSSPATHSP
Text: as §1

RXRα [3] = target: T1, RXRα; experiment: RXRα activation (transactivation); format: cell-based; settings: Table 1; read-out: Activation ED50, RXRα
Text: as §1

RARα [4] = target: T2, RARα; experiment: RARα activation (transactivation); format: cell-based
Text: as §1

mouse B cell = experiment: Inhibition of LPS-induced mouse B cell proliferation (3H-thymidine incorporation); format: cell-based
Protocol: Single cell suspensions of mouse spleen were set up in culture in flatbottomed 96 well Microtiter trays, 0.2 ml/well of a 2×10^5 /ml cell suspension in IMDM supplemented with 10% foetal calf serum, HEPES, antibiotics and 50 μM 2-mercaptoethanol. The specific B cell mitogen E. coli lipopolysaccharide (DIFCO) (LPS) was added at 50μg/ml. Cultures were incubated at 37° C. in a humidified atmosphere and 5% CO2.
The retinoids to be tested were first titrated in triplicate from 10 nM to 10 μM and left throughout the whole culture period. […] Cyclosporin A (Sandoz AG) was used as a reference compound (from 1 nM to 1 μM).
The cultures were then harvested on glass fiber filters and the radioactivity imcorporated into DNA measured in a β-liquid scintillation counter (Betaplate, Wallac Oy, Turku, Finland).
The results are expressed as % of the response of untreated cultures. […] Retinoids were added to the cultures at the beginning of the culture period.

HL-60 cells = experiment: HL-60 differentiation (NBT reduction); format: cell-based, human
Protocol: Under the influence of retinoids, HL-60 cells (a human myeloid leukemia cell line) differentiate into granulocytes. This differentiation of HL-60 cells into granulocytes is mediated by RARα, and so provides the basis for the use of retinoids to treat leukemia.
Retinoid-induced differentiation of HL-60 cells was assayed by measuring their oxidative burst potential via the reduction of NBT (Nitroblueterstazolium) [Pick et al., J. Reticuloendothelial Soc., 30:581-593 (1981)].
HL-60 cells were maintained in RPMI 1640 medium supplemented with 10% FCS, 2mM L-glutamine, ImM sodium pyruvate, 1% non-essential amino acids, 50 U/ml penicillin and 50 μg/ml streptomycin (=RPMI/FCS).
30,000 cells/[…] of RPMI/FCS were seeded into flat-bottomed microtiter wells. 10 μl of retinoids diluted in complete medium were added at the same time to yield final concentrations betweeen 10^-11 and 10^-6 M (stock solutions of 10^-2 M in ethanol were kep at -20° C. and protected from light). After 3 days, the medium was removed with a multichannel pipette and replaced with 100 μl of NBT solution (1 mg/ml in PBS with 200 nM phorbol myristate acetate (PMA). Following an additional hour incubation at 37° C. the NBT solution was removed and 100 μl of 10% SDS in 0.01 N HCl was added. The amount of the reduced NBT was quantified photometrically at 540 nm using an automated plate reader. The mean of 3 wells was calculated. S.E.M. were between 5 and 10%.

Rhino mouse utricles = experiment: Rhino mouse utricle reduction activity; format: in vivo, Rhino mice; settings: topical; for Utricle Size: 3 weeks; for Utricle size % Change from Control: ns = not statistically significant, others p<0.05
Protocol: Compounds were dissolved in 100% acetone and stored at 4° C. for the duration of the experiment under nitrogen. […] One day after the last dose, the mice were sacrificed by CO2 inhalation. […] The epidermis was then separated from the dermis.
The samples were kept in each of the above solutions for 2 hours. The skin samples were removed from the xylene and mounted on glass microscope slides. Image analysis, using the Ultimage image analysis software, was used to determine the mean diameter and area of utricles. Approximately 5 fields per sample were examined, for an average of 150 utricles per mouse measured.

IC50 (RXRα [1]): 92 nM
IC50 (RARα [2]): > 10000 nM
EC50 (RXRα [3]): 1.7 nM
EC50 (RARα [4]; Table 1, read-out: Activation ED50, RARα): > 10000 nM
EC50 (RARα [4]; Table 2, read-out: RARα activation ED50): > 10000 nM
SMILES: CC1=C(/C=C/C2=C(/C=C/C(C)=C/C(=O)O)CCCC2)C(C)(C)CCC1 [Example 4, (2E,4E)-3-Methyl-5-(2-((E)-2(2,6,6-trimethyl-1-cyclohexen-1-yl)ethenyl)-1-cyclohexen-1-yl)-2,4-pentadienoic acid]
potency relative to all-trans RA (mouse B cell; LPS induced mouse B cell proliferation): 1/100
IC50 (mouse B cell; Mus musculus, B-cell, 72 h, alone, FIG. 4, day 3): 100 nM
effect on B cell response at low doses (mouse B cell; day 4, low doses (=IC50 at day 3)): slightly enhancing the response
potentiation of inhibitory activity of all-trans RA on mouse B cell proliferation (mouse B cell; in combination with all-trans RA): potentiated the inhibitory activity of all-trans RA; also recorded: potentiates the effect of all-trans RA
inhibition by combination with 1 nM RA (mouse B cell; with 1 nM RA, day 4, FIG. 6): inhibition on the order of that induced by 10 nM RA
potentiation of effect of 1 nM all-trans RA (mouse B cell; with 1 nM all-trans RA, day 3, FIG. 5): potentiation of the effect of 1 nM RA to the level observed with 10 nM RA
excess RXR ligand over all-trans RA for potentiation (mouse B cell; with all-trans RA): 10 to 30 fold
magnitude of the potentiation (mouse B cell; with all-trans RA): roughly tenfold
activity as inducer of HL-60 differentiation compared with all-trans retinoic acid (HL-60 cells; FIG. 1): clearly less active
HL-60 differentiation activity by itself at potentiating concentrations (HL-60 cells; FIGS. 2 and 3, alone): not active by itself
activity as inducer of HL-60 differentiation (HL-60 cells; ×10^-6 M, alone): virtually inactive
Utricle Size (Rhino mouse utricles; 0.1 μg/day): 9843 ± 565 μm^2 / utricle
Utricle size % Change from Control (Rhino mouse utricles; 0.1 μg/day): +1%
Utricle Size (Rhino mouse utricles; 1 μg/day): 9491 ± 507 μm^2 / utricle
Utricle size % Change from Control (Rhino mouse utricles; 1 μg/day): -3%
Utricle Size (Rhino mouse utricles; 10 μg/day): 8951 ± 964 μm^2 / utricle
Utricle size % Change from Control (Rhino mouse utricles; 10 μg/day): -8%
Utricle Size (Rhino mouse utricles; 100 μg/day): 5916 ± 992 μm^2 / utricle
Utricle size % Change from Control (Rhino mouse utricles; 100 μg/day): -39%

Reference: US5986131A, “RXR selective ligands” (Hoffmann-La Roche Inc., priority 1997, dated 1999)
